Consider eight substances from PMC11832194, “Cystatin from Austrelaps superbus snake venom as a model for identifying potential inhibitors of Trypanosoma cruzi cruzain” (The Journal of Venomous Animals and Toxins Including …, 2025).

One series deals with T1, cruzain (Trypanosoma cruzi, UniProt P25779).
T1 construct: From 40 to 120 minutes, mature cruzain was obtained in a soluble and enzymatically active form; His tag (histidine tail); made in house; host or cells: E. coli BL21 DE3 (pET 21a (+) with the pro-cruzain gene)
T1 sequence (P25779 123-337): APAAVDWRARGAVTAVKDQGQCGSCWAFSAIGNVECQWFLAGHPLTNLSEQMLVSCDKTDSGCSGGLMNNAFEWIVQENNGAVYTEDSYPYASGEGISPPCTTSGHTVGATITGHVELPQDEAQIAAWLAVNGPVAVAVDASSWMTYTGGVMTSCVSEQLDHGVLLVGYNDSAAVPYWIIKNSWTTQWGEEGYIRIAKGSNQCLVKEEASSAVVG
Description: Inhibition of cruzain enzymatic (proteolytic) activity, casein substrate. In kind it is biochemical. As to conditions: cruzain 50 μM, peptide 500 to 62.5 μM, 1% casein substrate, Tris-HCl 0.1 M pH 8, 37°C, absorbance 280 nm, read-out: I50(µM) ± SD, inhibition of cruzain proteolytic activity. As to the method:
Cruzain at a final concentration of 50 μM was incubated for 30 minutes at 37°C with various concentrations of AsCystatin (50-6.25 μM). Subsequently, 1% casein substrate diluted in Tris-HCl 0.1 M, pH 8, was added. The mixture was incubated again for 30 minutes at 37°C, and the reaction was stopped by adding 250 μL of 20% Trichloroacetic Acid (TCA), followed by a 30-minute rest period at room temperature. Finally, the mixture was centrifuged at 10,000 × g for 15 minutes. Enzymatic activity inhibition was estimated by recording the absorbance of the supernatant at 280 nm using a microplate spectrophotometer (BioTek Eon). The concentration required to inhibit 50% of cruzain enzymatic activity was determined using GraphPad Prism 6.0 software.
The peptides designed, as mentioned in the previous section, were synthesized by AminoTech (São Paulo, Brazil). Subsequently, the ability of the synthetic peptides to inhibit cruzain enzymatic activity was assessed. For this procedure, different concentrations of each peptide (500 to 62.5 μM) were incubated with 50 μM cruzain, and the steps detailed in the section […] were carried out.

For series [1], the target named is epimastigote forms of clone CL B5 of Trypanosoma cruzi. The series can be described thus: In vitro trypanocidal activity on epimastigotes (CPRG, β-galactosidase). Type of series: cell-based. The settings on record: T. cruzi CL B5 lacZ epimastigotes, 2.5 × 10^5 parasites/mL, 72 hours at 28°C, peptides 500-62.5 µM, CPRG read-out at 590 nm. The protocol:
To assess the trypanocidal activity of the synthetic peptides, epimastigote forms of clone CL B5 of Trypanosoma cruzi, transfected with the Escherichia coli β-galactosidase gene (lacZ), were used. The parasites were cultivated at 28°C in liver infusion tryptose (LIT) medium, supplemented with 10% fetal bovine serum (FBS) and the antibiotics penicillin and streptomycin. About 200 µL of epimastigotes at 2.5 × 10^5 parasites/mL concentration were plated in a 96-well plate. The parasites were incubated at 28°C for 72 hours with different concentrations of peptides (500-62.5 µM). Then, 50 µL of chlorophenol red-β-D-galactopyranoside (CPRG) solution was added, reaching a final concentration of 200 µM. The plate was incubated again at 37°C for 4 hours, and absorbance was monitored at 590 nm using a spectrophotometer (Synergy H1 multi-mode BIOTEK). Benznidazole was used as a positive control. The half maximal inhibitory concentration (IC50) was determined using GraphPad Prism (v.6.01) software.

Series [2] has as its system NCTC clone 929 fibroblasts. The series can be described thus: In vitro cytotoxicity on fibroblasts (resazurin). Type of series: cell-based, murine. As to conditions: NCTC929 cells, 2 × 10^4 cells per well, 48 hours 37°C 5% CO2, peptides 500-62.5 µM, absorbance 570 and 600 nm. The protocol: In these experiments, NCTC clone 929 fibroblasts were cultured in a 96-well plate with 180 µL of minimal essential medium (MEM) supplemented with 10% FBS, penicillin and streptomycin antibiotics. About 2 × 10^4 cells per well were cultured and incubated at 37°C for 48 hours in a 5% CO2 environment with different concentrations of synthetic peptides (500-62.5 µM). Then, 20 µL of a resazurin solution was added, reaching a final concentration of 2 mM. The plate was incubated again at 37°C for 4 hours, and absorbance was monitored at 570 and 600 nm using a Synergy H1 multi-mode spectrophotometer (BIOTEK). GraphPad Prism software determined the half-maximal cytotoxic concentration (CC50) (v.6.01). The CC50 of the reference drug benznidazole was also determined to finally determine the selectivity index

Where [3] appears, read: read-out: IC50 (µM) ± SD, trypanocidal activity.

Where two headings read alike, the source gives them in different places. No end group written: not given here.

Regarding GGLQVVTGPW [Pep5], the IC50 stood at 220 ± 0.48 µM at cruzain (SD) and 475.5 ± 1.65 µM in series [1] (SD). For the same substance, in series [2], the “IC50 (µM) ± SD, cytotoxic activity” value was more than 500 µM.
As for IPGGLSK [Pep1], the IC50 (at cruzain; in series [1] (setting [3])) was more than 500 µM in each case. In addition, the “IC50 (µM) ± SD, cytotoxic activity” value in series [2] is more than 500 µM.
Consider KGGLQVVTGAPWK [Pep7], for which the IC50 on cruzain (SD) is 388.5 ± 1.22 µM; in series [1] (SD), 390.2 ± 2.1 µM. Moreover, the “IC50 (µM) ± SD, cytotoxic activity” value in series [2] is reported as more than 500 µM.
Regarding KGGLQVVTGPWK [Pep6], the IC50 on cruzain (SD) was 384.6 ± 0.77 µM; in series [1] (setting [3]) it was more than 500 µM. Also, in series [2], the “IC50 (µM) ± SD, cytotoxic activity” value is more than 500 µM.
With KIPGGQVVTGPWK [Pep8], the IC50 was found to be 281.5 ± 2.19 µM at cruzain (SD) and 471.3 ± 1.8 µM in series [1] (SD). Further, the “IC50 (µM) ± SD, cytotoxic activity” value in series [2] was more than 500 µM.
As to “KQVVTGK [Pep4, linear peptide derived from AsCystatin with lysine residues at each end]”, the IC50 (with cruzain; in series [1] (setting [3])) was more than 500 µM each time. Further, the “IC50 (µM) ± SD, cytotoxic activity” value in series [2] is listed as more than 500 µM.
As to QSQVVTGAK [Pep3], the IC50 (on cruzain; in series [1] (setting [3])) was more than 500 µM in each case. Moreover, the “IC50 (µM) ± SD, cytotoxic activity” value in series [2] is more than 500 µM.
QVVTG [Pep2]: the IC50 (on cruzain; in series [1] (setting [3])) was more than 500 µM each time. Besides, in series [2], the “IC50 (µM) ± SD, cytotoxic activity” value is more than 500 µM.
